Experimental data reported in patent publication US11066409B2, “Bicyclic nitrogen-containing heterocyclic derivatives and pharmaceutical composition comprising the same” (Shionogi & Co., Ltd., priority 2016, dated 2021).

Target: human P2X7 receptor (Homo sapiens (Human), UniProt Q99572, R270H)
Experiment: Evaluation of a human P2X7 receptor inhibitory activity (Yo-Pro uptake, BzATP stimulation, FLIPR TETRA)
Type: cell-based
Settings: 1321N1 cells stably expressing human P2X7 receptor, Yo-Pro fluorescence
Protocol: Evaluation of a human P2X7 receptor inhibitory activity Stably expressing cell line (1321N1 cell transfected with the human P2X7 receptor gene (GenBank accession number NM_002562.5 including T606C and G952A SNP)) was used. The cells were seeded in a 384-well microtiter plate at a concentration of 8000 cells/well and cultured in the medium (10% fetal bovine serum, 25 mM HEPES, 1% penicillin and streptomycin in DMEM) for one day at 37° C. under 5% carbon dioxide atmosphere. After replacing with 20 μL of the HBSS buffer (20 mM HEPES, 55.6 mM D-glucose, 1× HBSS(−), pH7.4-7.5), 15 μL of 17.3 μM Yo-Pro solution in the HBSS buffer was added. The plate was placed in high-throughput cellular screening system FLIPR TETRA (Molecullar Devices, LLC.) and 15 μL of 130 μM BzATP solution in the HBSS buffer was added. Measurement of fluorescence intensity by FLIPR TETRA was started. After eight minutes, 15 μL of DMSO solutions containing different concentrations of the compound of the present invention as prepared by dilution with the HBSS buffer were dispensed to each well through the built-in automatic dispenser, and the measurement of fluorescence intensity was continued for 20 minutes. The maximum fluorescence intensity without the compound of the present invention is calculated as 0% inhibition and the maximum fluorescence intensity when the reference compound was added is calculated as 100% inhibition. Changing values of fluorescence intensity by the compound of the present invention were calculated by difference between maximum and minimum fluorescence intensity for 20 minutes. Inhibition ratios (%) were calculated from the following equation:
[formula] IC50 was calculated using logistic approximation.
As for IC50 value, value to below 10 nmol/L is represented as “A”, value from 10 nmol/L to below 100 nmol/L is represented as “B”, value from 100 nmol/L to below 500 nmol/L is represented as “C”, and value from 500 nmol/L to below 1 μmol/L is represented as “D”.

Sequence of human P2X7 receptor (Q99572 whole entry R270H): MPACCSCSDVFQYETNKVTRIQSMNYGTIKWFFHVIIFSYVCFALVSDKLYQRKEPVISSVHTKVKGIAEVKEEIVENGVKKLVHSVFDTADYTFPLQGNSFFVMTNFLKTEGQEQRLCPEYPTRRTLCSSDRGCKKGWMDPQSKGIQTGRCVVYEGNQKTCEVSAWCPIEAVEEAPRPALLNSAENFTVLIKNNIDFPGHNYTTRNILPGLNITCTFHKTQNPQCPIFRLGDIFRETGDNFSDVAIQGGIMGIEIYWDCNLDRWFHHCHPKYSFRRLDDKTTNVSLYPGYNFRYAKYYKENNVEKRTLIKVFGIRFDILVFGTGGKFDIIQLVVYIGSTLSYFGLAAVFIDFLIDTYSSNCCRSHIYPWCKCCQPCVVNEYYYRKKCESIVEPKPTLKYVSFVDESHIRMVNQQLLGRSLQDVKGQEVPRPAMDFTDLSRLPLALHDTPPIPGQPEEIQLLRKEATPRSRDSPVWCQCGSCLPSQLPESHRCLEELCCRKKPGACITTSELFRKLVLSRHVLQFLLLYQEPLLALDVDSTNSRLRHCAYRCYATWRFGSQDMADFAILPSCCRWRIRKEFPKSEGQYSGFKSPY

| SMILES | IC50 (class symbols) | IC50 |
| --- | --- | --- |
| COc1ccc(/N=c2\[nH]c(=O)cc3n2C(c2ccc(F)cc2)CC3)c(C)n1 (stereo not shown) [Compound I-0070] | 10 to 100 nM | – |
| Cc1cc(Nc2nc(=O)cc3n2C(c2ccccc2)CC3)c(C)cc1Cl (stereo not shown) [Compound I-0011] | < 10 nM | – |
| Cc1nc2cc(C)c(Nc3nc(=O)cc4n3C(c3ccccc3)CN4C)cc2s1 (stereo not shown) [Compound I-0103] | 10 to 100 nM | – |
| Cc1ccc(CCCO)cc1NC1=NC(=O)N(C)C2=NCC(c3cc(F)c(F)c(F)c3)N12 (stereo not shown) [Compound I-0181] | 10 to 100 nM | – |
| CN1C(=O)N=C(NCc2cccc(F)c2)N2C1=NCC2c1cc(F)c(F)c(F)c1 (stereo not shown) [Compound I-0197] | 10 to 100 nM | – |
| CCOc1nc(C)c(Nc2nc(=O)cc3n2C(c2ccc(F)cc2F)CC3)cc1F (stereo not shown) [Compound I-0082] | 10 to 100 nM | – |
| COc1cc(Nc2nc(=O)cc3n2C(c2ccccc2)CC3)c(C)cc1Cl (stereo not shown) [Compound I-0027] | < 10 nM | – |
| Cc1ccc(CCO)cc1NC1=NC(=O)N(C)C2=NCC(c3cc(F)c(F)c(F)c3)N12 (stereo not shown) [Compound I-0194] | 10 to 100 nM | – |
| COc1cc(C)c(Nc2nc(=O)cc3n2C(c2ccccc2)CC3)cc1Cl (stereo not shown) [Compound I-0028] | < 10 nM | – |
| COc1nc(C)c(NC2=NC(=O)N(C)C3=NCC(c4cc(F)c(F)c(F)c4)N23)cc1C (stereo not shown) [Compound I-0159] | 10 to 100 nM | – |
| Cc1ccc(O[C@H]2C[C@@H](CO)C2)cc1NC1=NC(=O)N(C)C2=NCC(c3cc(F)c(F)c(F)c3)N12 (stereo partly shown) [Compound I-0185] | 10 to 100 nM | – |
| Cc1ccc(CO)cc1NC1=NC(=O)NC2=NCC(c3cc(F)c(F)c(F)c3)N21 (stereo not shown) [Compound I-0178] | 10 to 100 nM | – |
| CCOc1ccc(NC2=NC(=O)N(C)C3=NCC(c4cc(F)c(F)c(F)c4)N23)c(CC)n1 (stereo not shown) [Compound I-0165] | 10 to 100 nM | – |
| COc1ccc(Nc2nc(=O)cc3n2C(c2cccc(Cl)c2)CC3)c(C)c1 (stereo not shown) [Compound I-0050] | < 10 nM | – |
| COc1ccc(Nc2nc(=O)cc3n2C(c2ccccc2)CC3)c(C)n1 (stereo not shown) [Compound I-0034] | 10 to 100 nM | – |
| Cc1cc(F)c(C2=NCCO2)cc1NC1=NC(=O)N(C)C2=NCC(c3cc(F)c(F)c(F)c3)N12 (stereo not shown) [Compound I-0214] | 10 to 100 nM | – |

| SMILES | IC50 (class symbols) | IC50 |
| --- | --- | --- |
| Cc1cc(OC(F)F)c(C)cc1/N=c1\[nH]c(=O)cc2n1C(c1ccccc1)CC2 (stereo not shown) [Compound I-0065] | < 10 nM | – |
| COc1cc(C)c(Nc2nc(=O)cc3n2C(c2ccccc2)CC3)cn1 (stereo not shown) [Compound I-0030] | 100 to 500 nM | – |
| Cc1ccc(NC2=NC(=O)N(C)C3=NCC(c4cc(F)cc(F)c4)N23)c(C)n1 (stereo not shown) [Compound I-0114] | 100 to 500 nM | – |
| COc1cc(C)c(Nc2nc(=O)cc3n2C(c2cccc(F)c2)CC3)cc1OC (stereo not shown) [Compound I-0018] | 10 to 100 nM | – |
| CCOc1ccc(/N=c2\[nH]c(=O)c(F)c3n2C(c2ccc(F)cc2F)CC3)c(CC)n1 (stereo not shown) [Compound I-0076] | 10 to 100 nM | – |
| Cc1cc(OC(F)F)ccc1Nc1nc(=O)cc2n1C(c1ccc(F)cc1)CC2 (stereo not shown) [Compound I-0077] | < 10 nM | – |
| COc1ccc(NC2=NC(=O)N(C)C3=NCC(c4ccc(F)cc4)N23)c(C)c1F (stereo not shown) [Compound I-0151] | – | 14 nM |
| COc1cc(C)c(Nc2nc(=O)cc3n2C(c2ccc(F)cc2)CC3)cc1OC (stereo not shown) [Compound I-0017] | 10 to 100 nM | – |
| COc1cc(Nc2nc(=O)c(OC)c3n2C(c2ccccc2)CC3)c(C)cc1Cl (stereo not shown) [Compound I-0044] | 10 to 100 nM | – |
| COc1nc(C)c(Nc2nc(=O)cc3n2C(c2ccc(F)c(Cl)c2)CC3)cc1F (stereo not shown) [Compound I-0094] | 10 to 100 nM | – |
| Cc1cc(F)c(OCCO)cc1NC1=NC(=O)N(C)C2=NCC(c3cc(F)c(F)c(F)c3)N12 (stereo not shown) [Compound I-0172] | 10 to 100 nM | – |
| COc1cc(C)c(Nc2nc(=O)n(C)c3ncn(Cc4ccccc4)c23)cc1OC [Compound I-0170] | 10 to 100 nM | – |
| CN1C(=O)N=C(Nc2cc(C#N)ccc2F)N2C1=NCC2c1cc(F)c(F)c(F)c1 (stereo not shown) [Compound I-0210] | 10 to 100 nM | – |
| COc1cc(NC2=NC(=O)N(C)C3=NCC(c4cc(F)c(F)c(F)c4)N23)c(C)nc1OC (stereo not shown) [Compound I-0167] | 100 to 500 nM | – |
| COc1ccc(C)c(Nc2nc(=O)c(F)c3n2C(c2cc(F)c(F)c(F)c2)CN3)c1 (stereo not shown) [Compound I-0166] | 10 to 100 nM | – |
